The nature of data set [1]: Log P assessment (HPLC). Format: physicochemical. The text has this:
(§1) Accordingly N‐Boc amino acid esters 20a–d were hydrolyzed to their free carboxylic acids 25a–d and then progressed in each case to the corresponding Weinreb–Nahm amides^[ [33] ^] 26a–d. N‐Boc deprotection followed by coupling to N‐Boc‐tryptophan generated dipeptides 27a–d as the required precursors for cyclization. The intramolecular Pictet–Spengler condensations, followed a previous protocol^[ [19] ^] and 4‐monofluoro 28a, 3,5‐difluoro‐ 28b, and 2,3,4,5,6‐pentafluoro‐ 28d keto‐piperazines could be prepared following this method. It is noteworthy that the pentafluoro‐ analog was accompanied by what appeared to be a high level of defluorinated side products, however 28d was conveniently purified by HPLC rather than column chromatography. […] Thus, 4‐monofluoro‐ 28a, 3,5‐difluoro‐ 28b, and 2,3,4,5,6‐pentafluoro‐ 28d cyclohexyl‐amino acid tryptophan diketopiperazines were prepared and explored in antitrypanosomal assays. Given the importance of molecular lipophilicity in the context of medicinal chemistry, a Log P assessment (HPLC) was made of the diketopiperazines products 28a, 28b, and 28d as illustrated in Table 1 . As anticipated, there is an increase in polarity (LogP reduction) as the number of fluorines increases. We also know from previous work[[6b]] that the Ph ring is more polar than cyclohexane but less polar than the progressively fluorinated cyclohexane rings. The keto‐piperazines 28a, 28b, and 28d were assayed^[ [20] ^] against growing cells of T. brucei and T. cruzi, as well as the human cell line, HeLa and the data is presented in Table 1.

Data set [2] relates to HeLa. Description: Mammalian cell activity. Conditions: Homo sapiens. Format: cell-based. As for the experimental part:
Bioactivities assays of Janus face Tryptophan […]
Fluorescence was recorded using a FLx
800 plate reader (BioTek) with an excitation wavelength 530–535 nm and emission wavelength of 590–610 nm using Gen5 Reader Control 2.0 Software (BioTek). EC50 values were determined using a 4-parameter non-linear logistic regression equation using GraFit 5.0 (Erithacus Software). SD values were calculated based on curve fitting to n biological replicates performed in parallel.

Data set [3] deals with T. brucei. Description: Trypanocidal activity against growing cells. Format: cell-based, Trypanosoma brucei.
Text: as §1
Bioactivities assays of Janus face Tryptophan
Parasites were grown in different medium (e.g. T. brucei was grown in HMI-11 medium) with 10% heat-inactivated foetal bovine serum. parasites were counted using CASY TT Cell Counter. Fluorescence was recorded using a FLx 800 plate reader (BioTek) with an excitation wavelength 530–535 nm and emission wavelength of 590–610 nm using Gen5 Reader Control 2.0 Software (BioTek). EC50 values were determined using a 4-parameter non-linear logistic regression equation using GraFit 5.0 (Erithacus Software). SD values were calculated based on curve fitting to n biological replicates performed in parallel.

Structures are written as SMILES.

For orientation: chromatographic logP means lipophilicity estimated from chromatographic retention. Low readings indicate a more hydrophilic compound, high ones a more lipophilic compound. In general, EC50 refers to the concentration needed to bring the measured effect to its halfway point. In data set [1], `O=C1NC(CC2CCC(F)CC2)C2NC1Cc1c2[nH]c2ccccc12` (stereo not shown) [28a] gave a chromatographic logP of 3.02. The half-maximal effective concentration (EC50) in data set [2] came to 105 ± 6.25 µM; in data set [3] (Trypanosoma brucei) it was 10.7 ± 0.46 µM. For the same compound, the “trypanocidal activity against T. brucei” value in data set [3] (comparison within series and with 29) is listed as “best compound”.

The values above are taken from paper PMC12631002, “Bioactivity Profiles of Progressively Ring‐Fluorinated Cyclohexyl Motifs in the WKYMVm Peptide as Formylpeptide FPR2 Agonists and in Keto‐Piperazines as Antitrypanosome Agents” (Chembiochem, 2025).
